Results: US9359451B2, “Methods and compositions for treating trauma-hemorrhage using estrogen and derivatives thereof” (THE UAB RESEARCH FOUNDATION, priority 2012, dated 2016)

Columns and labels:
Male Sprague Dawley rats = experiment: 6 hour survival after soft tissue trauma and 60% hemorrhage without resuscitation; assay type: in vivo, rat; conditions: for survival from 60% blood loss: FIG. 47, 6 hour interval after MBO, all saline vehicle controls died; for survival from 60% blood loss / survival percentage for 6 hr: no resuscitation
Method: Note that experimental conditions were sufficiently stringent that all saline vehicle control hemorrhaged rats died. The number of subject rats was vehicle control-20, E2-SO4-21, and EE3-SO4-20. Note that the time to begin the 6 hour interval starts after the maximum bleed out (MBO). It takes approximately 45 minutes to attain the MBO. Also please note that no resuscitation is given for the duration of the 6 hour test.
Survival studies with ethinyl 17α-estradiol-3-sulfate (EE3-SO4) in rats subjected to soft tissue trauma and 60% hemorrhage were performed as has been described for E2-SO4 and E2-cyclodextrin. Briefly, Male Sprague Dawley rats were anesthetized with isoflurane and received a 5 cm laparotomy. Cannulation was performed of 2 femoral arteries (one for bleeding and the one for blood pressure monitoring) and one femoral vein to administer drug or saline. Rats were bled to 62.9% total blood volume within 45 min with a mean arterial blood pressure of 40 mmHg achieved in 10 min and maintained at the pressure throughout the bleeding procedure. At the point of maximum bleed out (MBO), estrogen compounds were administered. Survival was monitored for 6 hours following MBO.
The optimum dose of EE-3-SO4 to promote rat survival for 6 hr was determined. The doses of 0.1 mg/kg (n=6), 0.3 mg/kg (n=6), 1.0 mg/kg (n=7) and 3.0 mg/kg (n=6) were used. The respective survival percentages were 16%, 50%, 87% and 50%, respectively (FIG. 41). Vehicle controls were matched for each group and the numbers of test rats were identical as well. No vehicle controls of any group survived for 6 hr (i.e., 100% death).

[1] = test system: mean arterial blood pressure (MAP); experiment: Mean arterial blood pressure spike after iv administration in hemorrhaged rats; assay type: in vivo, rat; conditions: for “spike” in mean arterial blood pressure (MAP) just after administration: rapid iv injection in ~1 min at MBO
Source text: An additional practical matter to be resolved was removing or dampening the ever-present “spike” in mean arterial blood pressure (MAP) observed just after administration of EE-3-SO4, which was also observed with E2-CD and E2-SO4. Because this could be a threat to the hemorrhage patient by having this transient pressure rise destabilize and eject nascent hemostatic “plugs” in damaged vessels, a solution was developed for the potential problem. By giving the iv bolus of […] in a slightly longer interval over 5 min starting at MBO rather than a more rapid injection in ˜1 min (i.e., a “slow push”), the benefits of EE-3-SO4 remained while the MAP “spike” was removed. To determine the maximum reduction in the blood pressure spike studies were further conducted with a push over a 10 min period.

[2] = test system: Sprague-Dawley adult male rats; experiment: Traumatic brain injury (lateral fluid percussion): ICP, CPP and pbtO2 monitoring; assay type: in vivo, rat; conditions: for intracranial pressure vs untreated vehicle controls: FIG. 44, measured over a 120 min period
Method: Sprague-Dawley adult male rats were divided into 4 groups: vehicle, E2-SO4 (1 mg/kg), sham+vehicle and sham+E2-SO4; n=5/group. The TBI model was lateral fluid percussion injury (LFP), induced via a hydraulic pressure pulse to the anesthetized rat's exposed brain. This was introduced through a burr hole in the lateral skull prepared one day prior to LFP. A single iv dose of E2-SO4 or saline vehicle was administered 1 hr after LFP. Physiological parameters were measured 24 hr post-injury.
(§1) In a second experiment, the efficacy of E2-SO4 treatment for TBI in a lateral fluid percussion (LFP) model was examined. This involved 6 groups of rats (n=5/group). All rats received a craniectomy. Groups 1, 2, 4 and 5 received LFP injury. Groups 1 and 4 were treated with E2 (1 mg/kg) 1 hr post-injury, groups 2 and 5 were vehicle (Veh)-treated and groups 3 and 6 were sham. Groups 1-3 underwent intracranial pressure (ICP), cerebral perfusion pressure (CPP) and partial oxygen pressure (pbtO2) monitoring. Groups 4-6 underwent fludoexoyglucose (FDG)-PET/CT and diffusion tensor imaging (DTI) analysis on days 1 and 7 post-induction. Relative standard uptake values (SUV) of upper half of brain to central value, fractional anisotropy (FA) and apparent diffusion coefficient (ADC) maps were calculated.
FIG. 48B is a plot of cerebral perfusion pressure, which is a derivative of mean arterial pressure less ICP. […] The X axis is shown for an extended 2 hours to confirm stability for the various probes used.
The clinical manifestation of edema after TBI can be seen as increased intracranial pressure, with lower brain perfusion pressure and reduced oxygen tension. […] FIG. 44 compares treatments for TBI with hormones, measured over a 120 min period to control the effects of the invasive probe on pressures. The treatments are progesterone (T+progesterone: magenta), progesterone plus E2-SO4 (T+E+P: brown), E2-SO4 (T+E2SO4: red) and EE-3-SO4 (T+EE-3SO4: yellow).

injured brain = experiment: Traumatic brain injury: FDG-PET/CT, diffusion tensor imaging and MRI edema; assay type: in vivo, rat; conditions: FIG. 43; day 1 and day 7 vs saline vehicle
Method: as §1
Rats were either treated with E2 or a saline vehicle control, where treatment is administered 1 hour after injury. […] The former is the area of deranged nerves, while the latter constitutes intact nerves.

isolated vascular rings = experiment: Vascular reactivity of isolated vascular rings in a physiological bath; set-up: species or system rat or pig
Method: Data to delineate the mechanism of action for EE-3-SO4 vis-à-vis effects on the cardiovascular system was acquired. While it is well known that estrogens act on the vascular system by a variety of mechanisms including vasorelaxation per se, specific confirmation of this fact for EE-3-SO4 was needed. […] Vessels are contracted by a variety of agents (i.e., endothelin-1, phenylephrine). The action(s) are measured with a force transducer and recorded digitally. […] (see FIG. 42).

Male SD rats = experiment: Survival and blood pressure after trauma-hemorrhage with 60% blood loss and no fluid resuscitation; assay type: in vivo, rat; conditions: FIG. 21; trauma and major blood loss, crystalloid resuscitation after initial 3-hour interval; all untreated controls died within 3 hours
Method: 16 rats were subjected to 60% removal of blood volume, using the same protocol found in Example 5.
Furthermore, crystalloid fluid resuscitation was administered following an initial 3-hour interval after the trauma and major blood loss, and rats were followed for 7 days. It has been observed that rats which survive for the initial 3 hours uniformly go on to survive for prolonged period of time and were then sacrificed. The survival rate is 68% for estrogen-treated rats, while all untreated control rats have died within the initial 3-hour interval (see FIG. 21).
Although E2 administration after trauma-hemorrhage (T-H) and fluid resuscitation produces salutary effects on organ functions, it was not known if E2 has any beneficial effects after major blood loss in the absence of fluid resuscitation. Male SD rats ˜250 g) underwent T-H (tissue trauma, BP 40 mmHg in 10 min and maintained at that BP by further blood withdrawal until maximum bleed out (MBO, 60% of total blood volume) occurred (45:t5 min)). E2 i.v. (1 mg/Kg, 0.4 ml/Kg volume, i.e., 120 μL/300 g body weight) or vehicle (cyclodextrin, CD) was then infused. No additional fluid was given for 3 hours. If rats survived, they received Ringer's lactate, 4× the MBO volume. A custom-fabricated 31p coil was placed on the surface of the rat's liver after laparotomy in another group, and spectra acquired using 4.7T NMR spectroscopy via a 31p coil in real time before and during hemorrhagic shock. Shock increased phosphomonoester and Pi with a concomitant decrease in β-ATP in both groups.

C[C@]12CC[C@@H]3c4ccc(OS(=O)(=O)O)cc4CC[C@H]3[C@@H]1CC[C@@H]2OS(=O)(=O)O [E2-SO4, 17-β-estradiol 3, 17 disulfate]
survival from 60% blood loss (Male Sprague Dawley rats): 66%
“spike” in mean arterial blood pressure (MAP) just after administration [1]: also observed
intracranial pressure vs untreated vehicle controls [2]: greatly reduce the pressure
pbtO2 (brain tissue oxygen partial pressure) ([2]; TBI (LFP), 1 mg/kg iv 1 hr after injury, 24 hr post-injury, vehicle 15.8±1.3, sham 39.6): 34.1±1.6 mmHg
ICP (intracranial pressure) ([2]; TBI (LFP), 1 mg/kg iv 1 hr after injury, measured 24 hr post-injury, TBI vehicle 17.4±0.5, sham 4.7): 7±0.4 mmHg
edema in the injured brain (injured brain): can reduce edema in the injured brain

C#C[C@]1(O)CC[C@H]2[C@@H]3CCc4cc(OS(=O)(=O)O)ccc4[C@H]3CC[C@@]21C [EE-3-SO4, ethinyl 17α-estradiol-3-sulfate]
survival percentage for 6 hr (Male Sprague Dawley rats; 0.1 mg/kg at MBO, no vehicle controls survived): 16%
survival percentage for 6 hr (Male Sprague Dawley rats; 0.3 mg/kg at MBO): 50%
survival percentage for 6 hr (Male Sprague Dawley rats; 1.0 mg/kg at MBO): 87%
survival percentage for 6 hr (Male Sprague Dawley rats; 3.0 mg/kg at MBO): 50%
survival from 60% blood loss (Male Sprague Dawley rats): 80%
survival from 60% blood loss (Male Sprague Dawley rats; listed as EE3-SO4): exhibits enhanced survival as compared to E2-sulfate
optimum dose to promote rat survival for 6 hr (Male Sprague Dawley rats; doses 0.1, 0.3, 1.0 and 3.0 mg/kg tested): 1.0 mg/kg
reduction in the blood pressure spike with slow push ([1]; iv bolus over 5 min starting at MBO, no further benefit at 10 minutes): complete reduction at 5 minutes
“spike” in mean arterial blood pressure (MAP) just after administration [1]: observed
potency on a molar equivalent basis (isolated vascular rings; FIG. 42, compared with E2-SO4): more potent than E2-SO4
range of doses with linear response in promoting vessel relaxation (isolated vascular rings; vessels contracted by endothelin-1 or phenylephrine, Kreb's buffer): 10 to 100000 nM
intracranial pressure vs untreated vehicle controls [2]: greatly reduce the pressure
edema in the injured brain (injured brain): can reduce edema in the injured brain

CN[C@@H](CCCNC(=N)N)C(=O)O [methyl arginine]
antagonism of EE-3-SO4's vessel relaxation (isolated vascular rings; antagonist added to EE-3-SO4): relaxation can be inhibited

CC(=O)[C@H]1CC[C@H]2[C@@H]3CCC4=CC(=O)CC[C@]4(C)[C@H]3CC[C@]12C [progesterone]
intracranial pressure vs untreated vehicle controls [2]: greatly reduce the pressure

estrogen
survival rate (Male SD rats): 68%
